Laboratory results as given in US20120328569A1, “INHIBITORS OF HEPATITIS C VIRUS NS5B POLYMERASE” (priority 2010, published 2012).

tested on: HCV genotype 1b replicon; test: HCV replicon assay, cell ELISA with antibody to replicon-encoded NS3/4A (genotype 1b replicon); assay type: cell-based, hepatitis C virus; conditions: Hepatitis C virus, 96 h, read-out: Replicon 1b IC50 (nM), HCV genotype 1b replicon cells, 96 hours incubation, NS3/4A ELISA readout
Summary of the method: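 An ELISA on lysed cells, using an antibody against NS3/4A protease, served as the proxy for replicon RNA. Cells had first been exposed for 96 h to serially diluted compound in G418-free conditions. Percent of DMSO control was fitted with a four-parameter function to give IC50.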

SMILES | IC50 [nM]
CNC(=O)c1c(-c2ccc(F)cc2)oc2cc(N(C)S(C)(=O)=O)c(-c3ccc(CNS(=O)(=O)c4ccccc4)cc3)cc12 [Example 105, 2-(4-fluorophenyl)-N-methyl-6-[methyl (methylsulfonyl)amino]-5-(4-{[(phenylsulfonyl)amino]methyl}phenyl)-1-benzofuran-3-carboxamide] | 57
CNC(=O)c1c(-c2ccc(F)cc2)oc2cc(N(C)S(C)(=O)=O)c(-c3ccc(C(F)(F)F)cc3)cc12 [Example 108, 2-(4-fluorophenyl)-N-methyl-6-[methyl(methylsulfonyl)amino]-5-[4-(trifluoromethyl)phenyl]-1-benzofuran-3-carboxamide] | 53
CNC(=O)c1c(-c2ccc(F)cc2)oc2cc(N(C)S(C)(=O)=O)c(-c3ccc(OC(C)C)cc3)cc12 [Example 109, 2-(4-fluorophenyl)-N-methyl-6-[methyl(methylsulfonyl)amino]-5-[4-(propan-2-yloxy)phenyl]-1-benzofuran-3-carboxamide] | 216
CCc1ccc(-c2cc3c(C(=O)NC)c(-c4ccc(F)cc4)oc3cc2N(C)S(C)(=O)=O)cc1 [Example 110, 5-(4-ethylphenyl)-2-(4-fluorophenyl)-N-methyl-6-[methyl(methylsulfonyl)amino]-1-benzofuran-3-carboxamide] | 90
CNC(=O)c1c(-c2ccc(F)cc2)oc2cc(N(C)S(C)(=O)=O)c(-c3cc(F)cc(F)c3)cc12 [Example 111, 5-(3,5-difluorophenyl)-2-(4-fluorophenyl)-N-methyl-6-[methyl(methylsulfonyl)amino]-1-benzofuran-3-carboxamide] | 40
CNC(=O)c1c(-c2ccc(F)cc2)oc2cc(N(C)S(C)(=O)=O)c(-c3ccc(-c4ccccc4)cc3)cc12 [Example 112, 5-(biphenyl-4-yl)-2-(4-fluorophenyl)-N-methyl-6-[methyl(methylsulfonyl)amino]-1-benzofuran-3-carboxamide] | < 8
CNC(=O)c1c(-c2ccc(F)cc2)oc2cc(N(C)S(C)(=O)=O)c(-c3ccc(O)cc3)cc12 [Example 113, 2-(4-fluorophenyl)-5-(4-hydroxyphenyl)-N-methyl-6-[methyl(methylsulfonyl)amino]-1-benzofuran-3-carboxamide] | 74
CNC(=O)c1c(-c2ccc(F)cc2)oc2cc(N(CCNCc3ccccc3)S(C)(=O)=O)c(-c3ccccc3)cc12 [Example 123, 6-{[2-(benzylamino)ethyl](methylsulfonyl)amino}-2-(4-fluorophenyl)-N-methyl-5-phenyl-1-benzofuran-3-carboxamide] | 111
CNC(=O)c1c(-c2ccc(F)cc2)oc2cc(N(CCN(C)Cc3ccccc3)S(C)(=O)=O)c(-c3ccccc3)cc12 [Example 124, 6-[{2-[benzyl(methyl)amino]ethyl} (methylsulfonyl)amino]-2-(4-fluorophenyl)-N-methyl-5-phenyl-1-benzofuran-3-carboxamide] | > 10000
CNC(=O)c1c(-c2ccc(F)cc2)oc2cc(N(C)S(C)(=O)=O)c(-c3cccc(-c4nc5ccccc5s4)c3)cc12 [Example 135, 5-(3-(benzo[d]thiazol-2-yl)phenyl)-2-(4-fluorophenyl)-N-methyl-6-(N-methylmethylsulfonamido)-1-benzofuran-3-carboxamide] | 4
CNC(=O)c1c(-c2ccc(F)cc2)oc2cc(N(C)S(C)(=O)=O)c(-c3cccc(-c4cnc(-c5ccccc5)s4)c3)cc12 [Example 136, 2-(4-fluorophenyl)-N-methyl-6-[methyl (methylsulfonyl)amino]-5-[3-(2-phenyl-1,3-thiazol-5-yl)phenyl]-1-benzofuran-3-carboxamide] | 16
CNC(=O)c1c(-c2ccc(F)cc2)oc2cc(N(C)S(C)(=O)=O)c(-c3cccc(-c4nnc(-c5ccccc5)o4)c3)cc12 [Example 137, 2-(4-fluorophenyl)-N-methyl-6-[methyl (methylsulfonyl)amino]-5-[3-(5-phenyl-1,3,4-oxadiazol-2-yl)phenyl]-1-benzofuran-3-carboxamide] | 6
CNC(=O)c1c(-c2ccc(F)cc2)oc2cc(N(C)S(C)(=O)=O)c(-c3cccc(-c4noc5ccccc45)c3)cc12 [Example 138, 5-[3-(1,2-benzisoxazol-3-yl)phenyl]-2-(4-fluorophenyl)-N-methyl-6-[methyl (methylsulfonyl)amino]-1-benzofuran-3-carboxamide] | 9
CNC(=O)c1c(-c2ccc(F)cc2)oc2cc(N(C)S(C)(=O)=O)c(-c3cccc(-c4nnn(Cc5ccccc5)n4)c3)cc12 [Example 139, 5-[3-(2-benzyl-2H-tetrazol-5-yl)phenyl]-2-(4-fluorophenyl)-N-methyl-6-[methyl (methylsulfonyl)amino]-1-benzofuran-3-carboxamide] | 5
CNC(=O)c1c(-c2ccc(F)cc2)oc2cc(N(C)S(C)(=O)=O)c(-c3cccc(-c4nnn(CC(=O)O)n4)c3)cc12 [Example 140, [5-(3-{2-(4-fluorophenyl)-3-(methylcarbamoyl)-6-[methyl (methylsulfonyl)amino]-1-benzofuran-5-yl}phenyl)-2H-tetrazol-2-yl]acetic acid] | 1190
CNC(=O)c1c(-c2ccc(F)cc2)oc2cc(N(C)S(C)(=O)=O)c(-c3cccc(-c4cn5ccccc5n4)c3)cc12 [Example 141, 2-(4-fluorophenyl)-5-[3-(imidazo[1,2-a]pyridin-2-yl)phenyl]-N-methyl-6-[methyl (methylsulfonyl)amino]-1-benzofuran-3-carboxamide] | 3
CNC(=O)c1c(-c2ccc(F)cc2)oc2cc(N(C)S(C)(=O)=O)c(-c3cccc(-c4nc5cccnc5s4)c3)cc12 [Example 142, 2-(4-fluorophenyl)-N-methyl-6-[methyl (methylsulfonyl)amino]-5-[3-([1,3]thiazolo[5,4-b]pyridin-2-yl)phenyl]-1-benzofuran-3-carboxamide] | 1
CNC(=O)c1c(-c2ccc(F)cc2)oc2cc(N(C)S(C)(=O)=O)c(-c3cccc(-c4nc5ccc(C)cc5s4)c3)cc12 [Example 143, 2-(4-fluorophenyl)-N-methyl-5-[3-(6-methyl-1,3-benzothiazol-2-yl)phenyl]-6-[methyl(methylsulfonyl)amino]-1-benzofuran-3-carboxamide] | 8
CNC(=O)c1c(-c2ccc(F)cc2)oc2cc(N(C)S(C)(=O)=O)c(-c3ccc(OC)c(-c4nc5ccccc5s4)c3)cc12 [Example 144, 5-[3-(1,3-benzothiazol-2-yl)-4-methoxyphenyl]-2-(4-fluorophenyl)-N-methyl-6-[methyl (methylsulfonyl)amino]-1-benzofuran-3-carboxamide] | 11
CNC(=O)c1c(-c2ccc(F)cc2)oc2cc(N(C)S(C)(=O)=O)c(-c3ccc(F)c(-c4nc5ccccc5s4)c3)cc12 [Example 145, 5-[3-(1,3-benzothiazol-2-yl)-4-fluorophenyl]-2-(4-fluorophenyl)-N-methyl-6-[methyl (methylsulfonyl)amino]-1-benzofuran-3-carboxamide] | 6
CNC(=O)c1c(-c2ccc(F)cc2)oc2cc(N(C)S(C)(=O)=O)c(-c3cccc(-c4nc5c(C)cccc5s4)c3)cc12 [Example 146, 2-(4-fluorophenyl)-N-methyl-5-[3-(4-methyl-1,3-benzothiazol-2-yl)phenyl]-6-[methyl (methylsulfonyl)amino]-1-benzofuran-3-carboxamide] | 15
CNC(=O)c1c(-c2ccc(F)cc2)oc2cc(N(C)S(C)(=O)=O)c(-c3cccc(-c4nc5ccc(F)cc5s4)c3)cc12 [Example 147, 5-[3-(6-fluoro-1,3-benzothiazol-2-yl)phenyl]-2-(4-fluorophenyl)-N-methyl-6-[methyl (methylsulfonyl)amino]-1-benzofuran-3-carboxamide] | 7
CNC(=O)c1c(-c2ccc(F)cc2)oc2cc(N(C)S(C)(=O)=O)c(-c3cccc(-c4nc5cc(Cl)ccc5s4)c3)cc12 [Example 148, 5-[3-(5-chloro-1,3-benzothiazol-2-yl)phenyl]-2-(4-fluorophenyl)-N-methyl-6-[methyl (methylsulfonyl)amino]-1-benzofuran-3-carboxamide] | 9
CNC(=O)c1c(-c2ccc(F)cc2)oc2cc(N(C)S(C)(=O)=O)c(-c3cccc(-c4nc5cc(C(F)(F)F)ccc5s4)c3)cc12 [Example 149, 2-(4-fluorophenyl)-N-methyl-6-[methyl (methylsulfonyl)amino]-5-{3-[5-(trifluoromethyl)-1,3-benzothiazol-2-yl]phenyl}-1-benzofuran-3-carboxamide] | 11
CNC(=O)c1c(-c2ccc(F)cc2)oc2cc(N(C)S(C)(=O)=O)c(-c3cccc(-c4nc5cc(F)ccc5[nH]4)c3)cc12 [Example 150, 5-[3-(5-fluoro-1H-benzimidazol-2-yl)phenyl]-2-(4-fluorophenyl)-N-methyl-6-[methyl(methylsulfonyl)amino]-1-benzofuran-3-carboxamide] | 1
CNC(=O)c1c(-c2ccc(F)cc2)oc2cc(N(C)S(C)(=O)=O)c(-c3cccc(-c4nc5ccccc5[nH]4)c3)cc12 [Example 151, 5-[3-(1H-benzimidazol-2-yl)phenyl]-2-(4-fluorophenyl)-N-methyl-6-[methyl (methylsulfonyl)amino]-1-benzofuran-3-carboxamide] | 5
CNC(=O)c1c(-c2ccc(F)cc2)oc2cc(N(C)S(C)(=O)=O)c(-c3cccc(-c4nc5ccc(C#N)cc5[nH]4)c3)cc12 [Example 152, 5-[3-(6-cyano-1H-benzimidazol-2-yl)phenyl]-2-(4-fluorophenyl)-N-methyl-6-[methyl (methylsulfonyl)amino]-1-benzofuran-3-carboxamide] | 4
CNC(=O)c1c(-c2ccc(F)cc2)oc2cc(N(C)S(C)(=O)=O)c(-c3cccc(-c4nc5ccc(Br)cc5[nH]4)c3)cc12 [Example 153, 5-[3-(6-bromo-1H-benzimidazol-2-yl)phenyl]-2-(4-fluorophenyl)-N-methyl-6-[methyl (methylsulfonyl)amino]-1-benzofuran-3-carboxamide] | 4
